Measured values: US10004732B2 (Novartis AG, priority 2014, dated 2018)
One block for each compound: values may come before it.

Key:
[1] = target: T1, PI 3-kinase beta (Homo sapiens, UniProt P42338); experiment: Kinase Glo Luminescent Kinase Assay (Kglo), assay B; format: biochemical; details: read-out: Assay B PI3Kβ IC50
[2] = target: Vps34 (Homo sapiens, UniProt Q8NEB9); experiment: Kinase Glo Luminescent Kinase Assay (Kglo), assay C; format: biochemical; details: read-out: Assay C VPS34 IC50
[3] = target: PI 4-kinase beta (Homo sapiens, UniProt Q9UBF8); experiment: Kinase Glo Luminescent Kinase Assay (Kglo), assay D; format: biochemical; details: read-out: Assay D PI4Kβ IC50
Method: Kinase Glo Luminescent Kinase Assay (Kglo) for Pb 3-Kinase Alpha (A), Pb 3-Kinase Beta (B), Vps34 (C), Pb 4-Kinase Beta (D)
The Kinase Glo Luminescent Kinase Assay (Promega, Madison/Wis., USA) is a homogeneous HTS method of measuring kinase activity by quantifying the amount of ATP remaining in solution following a kinase reaction.
L-α-phosphatidylinositol (PI), provided as 10 mg/ml solution in methanol, was transferred into a glass tube and dried under a nitrogen beam. It was then resuspended in 3% OctylGlucoside (1-0-n-octyl-beta-D-glucopyranoside) by vortexing and stored at 4° C. 5 μL of a mix of PI/OctylGlucoside with the PI 3-kinase alpha and PI 3-kinase beta subtypes, or Vps34 or PI 4-kinase beta were added. Kinase reactions were started by the addition of 5 μl of an ATP-mix containing in a final volume 10 μL 10 mM TRIS-HCl pH 7.5, 3 mM MgCl2, 50 mM NaCl, 0.05% CHAPS, 1 mM DTT and 1 μM ATP at room temperature.
All fits were performed with the program XLfit4 (ID Business Solutions, Guildford, UK).

[4] = target: mTOR (Homo sapiens, UniProt P42345); experiment: Lanthascreen kinase binding assay, assay G; details: read-out: Assay G mTOR IC50
Method: Lanthascreen™ Kinase Binding Assay for mTOR (G)
Binding of an inhibitor to the kinase competes for binding with the tracer, resulting in a loss of FRET.
50 nL of compound dilutions were dispensed onto white 384-well small volume polystyrene plate.

[5] = target: T1, PI 3-kinase beta; experiment: Cellular assay I1, p-Akt (S473) in Rat-1 cells, Surefire format; format: cell-based; details: non-asterisked data: version I1 (Surefire format), Rat-1 cells; read-out: Assay I PI3Kβ IC50
[6] = target: T2, PI 3-kinase delta (Homo sapiens, UniProt O00329); experiment: Cellular assay J1, p-Akt (S473) in Rat-1 cells, Surefire format; format: cell-based; details: non-asterisked data: version J1 (Surefire format), Rat-1 cells; read-out: Assay J PI3Kδ IC50
[7] = target: T2, PI 3-kinase delta; experiment: TR-FRET Adapta assay, assay F
[8] = target: T3, PI 3-kinase alpha (Homo sapiens, UniProt P42336); experiment: Kinase Glo Luminescent Kinase Assay (Kglo), assay A; format: biochemical; details: read-out: Assay A PI3Kα IC50
Target sequence in this assay (P42336 whole entry): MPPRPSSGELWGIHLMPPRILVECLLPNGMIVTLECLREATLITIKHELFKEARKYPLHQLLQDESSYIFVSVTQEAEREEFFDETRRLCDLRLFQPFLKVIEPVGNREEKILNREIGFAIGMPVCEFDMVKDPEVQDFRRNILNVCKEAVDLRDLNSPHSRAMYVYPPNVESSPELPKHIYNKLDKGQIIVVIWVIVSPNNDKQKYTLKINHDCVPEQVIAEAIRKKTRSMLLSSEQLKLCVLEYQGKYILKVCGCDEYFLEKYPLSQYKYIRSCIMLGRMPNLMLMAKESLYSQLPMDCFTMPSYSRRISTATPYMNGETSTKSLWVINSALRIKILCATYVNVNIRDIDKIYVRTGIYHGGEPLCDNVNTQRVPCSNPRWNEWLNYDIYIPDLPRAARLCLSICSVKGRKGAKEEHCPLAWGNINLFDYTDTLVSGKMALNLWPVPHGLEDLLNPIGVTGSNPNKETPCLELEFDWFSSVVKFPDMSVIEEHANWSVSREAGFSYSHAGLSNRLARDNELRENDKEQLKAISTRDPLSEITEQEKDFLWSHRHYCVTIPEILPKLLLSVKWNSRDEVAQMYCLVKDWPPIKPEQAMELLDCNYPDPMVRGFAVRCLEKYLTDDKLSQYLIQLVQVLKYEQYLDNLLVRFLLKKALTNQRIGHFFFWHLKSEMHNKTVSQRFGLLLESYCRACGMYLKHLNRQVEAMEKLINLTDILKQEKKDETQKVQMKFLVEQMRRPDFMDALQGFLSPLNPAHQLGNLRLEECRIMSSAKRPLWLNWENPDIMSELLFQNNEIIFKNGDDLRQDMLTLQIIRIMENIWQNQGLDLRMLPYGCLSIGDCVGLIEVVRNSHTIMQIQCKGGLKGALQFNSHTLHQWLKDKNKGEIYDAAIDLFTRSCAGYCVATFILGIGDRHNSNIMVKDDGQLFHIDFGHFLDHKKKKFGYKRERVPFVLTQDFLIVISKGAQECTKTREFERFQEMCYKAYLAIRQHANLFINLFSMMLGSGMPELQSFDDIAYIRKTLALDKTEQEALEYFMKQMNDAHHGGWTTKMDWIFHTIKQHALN

[9] = target: PI 3-kinase gamma (Homo sapiens, UniProt P48736); experiment: TR-FRET Adapta assay, assay E; format: biochemical; details: for IC50: read-out: Assay E PI3Kγ IC50
[10] = target: T3, PI 3-kinase alpha; experiment: Cellular assay H1, p-Akt (S473) in Rat-1 cells, Surefire format; format: cell-based; details: non-asterisked data: version H1 (Surefire format), Rat-1 cells; read-out: Assay H PI3Kα IC50
Target sequence in this assay (P42336 whole entry): as above
Target sequence in this assay (Q63787 whole entry partner): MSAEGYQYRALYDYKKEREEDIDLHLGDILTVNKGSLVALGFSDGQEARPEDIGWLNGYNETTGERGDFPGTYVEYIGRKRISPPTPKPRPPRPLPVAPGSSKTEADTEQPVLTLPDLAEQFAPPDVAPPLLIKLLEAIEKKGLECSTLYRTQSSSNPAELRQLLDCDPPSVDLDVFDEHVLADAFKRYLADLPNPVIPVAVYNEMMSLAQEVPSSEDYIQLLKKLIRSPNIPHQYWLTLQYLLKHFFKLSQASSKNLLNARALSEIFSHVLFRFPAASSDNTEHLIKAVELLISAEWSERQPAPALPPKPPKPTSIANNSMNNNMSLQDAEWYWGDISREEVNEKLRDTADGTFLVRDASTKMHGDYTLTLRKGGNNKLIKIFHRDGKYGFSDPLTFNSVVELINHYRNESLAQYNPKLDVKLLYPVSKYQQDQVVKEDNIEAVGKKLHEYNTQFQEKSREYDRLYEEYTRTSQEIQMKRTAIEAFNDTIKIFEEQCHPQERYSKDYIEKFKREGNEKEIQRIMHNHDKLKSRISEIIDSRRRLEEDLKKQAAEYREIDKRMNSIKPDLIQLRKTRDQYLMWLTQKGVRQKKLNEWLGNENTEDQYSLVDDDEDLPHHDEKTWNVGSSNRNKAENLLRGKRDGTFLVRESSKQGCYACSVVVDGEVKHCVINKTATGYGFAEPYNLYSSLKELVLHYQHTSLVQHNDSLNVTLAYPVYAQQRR

[11] = Microsomal clearance assay (M); details: intrinsic clearance in rat liver microsomes
Method: The experiments were performed in 96-well glass plates at 37° C. on an automated Tecan EVO platform. Test compounds at a concentration of 10 mM in pure DMSO were diluted 1:1000 in water to 10 μM. […] Reactions were initiated by the addition of 150 μL of a cofactor solution containing 2 mM NADPH.

Sequence of Vps34 (Q8NEB9 whole entry, species assumed): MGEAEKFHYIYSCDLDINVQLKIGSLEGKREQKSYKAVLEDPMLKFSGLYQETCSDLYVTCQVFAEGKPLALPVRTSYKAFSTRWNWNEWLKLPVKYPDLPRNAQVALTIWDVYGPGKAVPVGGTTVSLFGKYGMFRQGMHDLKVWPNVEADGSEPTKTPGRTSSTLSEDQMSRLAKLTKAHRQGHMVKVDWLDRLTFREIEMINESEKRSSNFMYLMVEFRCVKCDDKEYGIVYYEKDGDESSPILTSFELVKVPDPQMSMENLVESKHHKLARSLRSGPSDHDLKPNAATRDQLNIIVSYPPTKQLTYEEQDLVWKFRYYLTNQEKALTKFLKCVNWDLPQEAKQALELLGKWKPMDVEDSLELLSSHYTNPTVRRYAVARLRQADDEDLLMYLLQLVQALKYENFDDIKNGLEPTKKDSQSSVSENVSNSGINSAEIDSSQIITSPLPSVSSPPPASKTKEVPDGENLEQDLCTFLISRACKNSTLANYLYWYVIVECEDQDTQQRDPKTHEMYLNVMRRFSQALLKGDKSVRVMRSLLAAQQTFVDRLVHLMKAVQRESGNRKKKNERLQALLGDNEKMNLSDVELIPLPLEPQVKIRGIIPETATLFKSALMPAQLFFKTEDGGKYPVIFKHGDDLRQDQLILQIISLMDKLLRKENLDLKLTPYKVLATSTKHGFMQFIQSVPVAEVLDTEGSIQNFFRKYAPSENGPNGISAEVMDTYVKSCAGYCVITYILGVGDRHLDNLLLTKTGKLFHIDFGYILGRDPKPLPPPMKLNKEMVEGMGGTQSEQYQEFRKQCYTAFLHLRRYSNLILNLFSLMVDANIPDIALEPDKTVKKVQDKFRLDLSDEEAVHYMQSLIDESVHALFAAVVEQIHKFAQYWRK
Sequence of PI 4-kinase beta (Q9UBF8 whole entry): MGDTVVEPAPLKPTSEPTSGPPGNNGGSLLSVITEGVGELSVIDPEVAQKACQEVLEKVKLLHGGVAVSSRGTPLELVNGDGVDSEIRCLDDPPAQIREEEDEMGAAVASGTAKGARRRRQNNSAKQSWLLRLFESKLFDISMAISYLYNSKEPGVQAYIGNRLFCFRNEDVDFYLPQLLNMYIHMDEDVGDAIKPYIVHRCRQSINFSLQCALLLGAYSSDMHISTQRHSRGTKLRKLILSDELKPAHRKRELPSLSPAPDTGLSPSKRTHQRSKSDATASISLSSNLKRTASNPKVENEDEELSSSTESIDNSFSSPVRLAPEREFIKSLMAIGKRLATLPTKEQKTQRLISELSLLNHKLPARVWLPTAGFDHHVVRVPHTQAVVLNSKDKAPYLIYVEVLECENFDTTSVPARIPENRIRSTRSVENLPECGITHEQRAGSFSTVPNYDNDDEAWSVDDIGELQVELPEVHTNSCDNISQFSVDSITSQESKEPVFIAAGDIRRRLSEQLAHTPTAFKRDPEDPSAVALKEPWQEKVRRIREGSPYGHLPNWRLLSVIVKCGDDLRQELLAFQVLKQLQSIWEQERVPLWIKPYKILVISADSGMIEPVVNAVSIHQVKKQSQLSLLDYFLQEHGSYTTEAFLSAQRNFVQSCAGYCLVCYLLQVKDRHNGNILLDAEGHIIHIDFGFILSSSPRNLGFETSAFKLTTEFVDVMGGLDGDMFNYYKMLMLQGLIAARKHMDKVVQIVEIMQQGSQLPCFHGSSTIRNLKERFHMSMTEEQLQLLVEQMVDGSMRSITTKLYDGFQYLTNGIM
Sequence of PI 3-kinase gamma (P48736 whole entry): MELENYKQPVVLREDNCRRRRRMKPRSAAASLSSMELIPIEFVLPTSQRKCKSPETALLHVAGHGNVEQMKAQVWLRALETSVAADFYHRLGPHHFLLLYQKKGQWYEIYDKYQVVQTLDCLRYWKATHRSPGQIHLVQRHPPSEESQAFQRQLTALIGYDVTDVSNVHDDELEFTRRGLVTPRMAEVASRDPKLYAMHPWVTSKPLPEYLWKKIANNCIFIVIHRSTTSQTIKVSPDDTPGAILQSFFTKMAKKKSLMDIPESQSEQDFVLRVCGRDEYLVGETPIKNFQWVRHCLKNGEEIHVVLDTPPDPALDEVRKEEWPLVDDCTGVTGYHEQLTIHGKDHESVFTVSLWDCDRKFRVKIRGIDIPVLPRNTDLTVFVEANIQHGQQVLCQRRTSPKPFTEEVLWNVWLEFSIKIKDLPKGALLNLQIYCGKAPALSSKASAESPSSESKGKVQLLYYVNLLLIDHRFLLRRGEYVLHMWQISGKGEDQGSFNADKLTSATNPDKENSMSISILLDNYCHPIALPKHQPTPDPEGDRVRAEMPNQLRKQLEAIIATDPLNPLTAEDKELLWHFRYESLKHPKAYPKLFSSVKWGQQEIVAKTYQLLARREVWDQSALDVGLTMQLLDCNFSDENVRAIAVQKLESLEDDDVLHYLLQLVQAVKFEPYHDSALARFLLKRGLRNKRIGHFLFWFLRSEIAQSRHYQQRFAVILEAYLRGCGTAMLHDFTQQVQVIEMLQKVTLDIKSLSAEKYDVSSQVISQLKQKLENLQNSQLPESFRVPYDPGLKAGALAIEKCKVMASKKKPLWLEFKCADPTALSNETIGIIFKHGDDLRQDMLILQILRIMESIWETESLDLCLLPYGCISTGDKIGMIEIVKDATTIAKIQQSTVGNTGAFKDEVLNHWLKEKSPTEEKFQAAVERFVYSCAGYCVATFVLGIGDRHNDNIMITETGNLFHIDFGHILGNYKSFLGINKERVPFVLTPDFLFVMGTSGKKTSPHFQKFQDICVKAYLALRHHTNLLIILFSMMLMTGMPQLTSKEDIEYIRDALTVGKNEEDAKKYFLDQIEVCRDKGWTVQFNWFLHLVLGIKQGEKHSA

SMILES: COc1ncccc1-c1nc(-c2cc(S(=O)(=O)NCCC(C)(C)O)ccc2C)cnc1N [Example 119.4]
IC50 [8]: 2.83 µM
IC50 [1]: > 9.1 µM
IC50 [2]: > 9.1 µM
IC50 [3]: > 9.1 µM
IC50 [9]: 3.12 µM
IC50 [4]: > 9.1 µM
IC50 [10]: > 10 µM
IC50 [5]: > 10 µM
IC50 [6]: > 10 µM
IC50 ([7]; read-out: Assay F PI3Kδ IC50): 5.7 µM

SMILES: Cc1ccc(S(=O)(=O)NCCC(C)(C)O)cc1-c1cnc(N)c(-c2cccnc2OC(C)C)n1 [Reference example 119.12, 3-(5-amino-6-(2-isopropoxypyridin-3-yl)pyrazin-2-yl)-N-(3-hydroxy-3-methylbutyl)-4-methylbenzenesulfonamide]
activity in assay E ([9]; TR-FRET Adapta, PI 3-kinase gamma): not shown any activity
IC50 [10]: > 10 µM
IC50 [5]: > 10 µM
IC50 [6]: > 10 µM

SMILES: Cc1ccc(S(=O)(=O)NCCC(C)(C)O)cc1-c1cnc(N)c(-c2cc(Cl)cnc2F)n1 [Example 119.8]
IC50 [8]: 1.05 µM
IC50 [1]: > 9.1 µM
IC50 [2]: > 9.1 µM
IC50 [3]: 4.53 µM
IC50 [9]: 0.167 µM
IC50 [4]: 5.94 µM
IC50 [10]: 3.85 µM
IC50 [5]: 4.64 µM
IC50 [6]: 5.2 µM
IC50 ([7]; read-out: Assay F PI3Kδ IC50): 0.2 µM

SMILES: Cc1ncc(-c2nc(-c3cc(S(=O)(=O)NCCCO)ccc3C)cnc2N)s1 [Example 10, 3-(5-Amino-6-(2-methylthiazol-5-yl)pyrazin-2-yl)-N-(3-hydroxypropyl)-4-methylbenzenesulfonamide]
IC50 [1]: 0.89 µM
IC50 [2]: 0.21 µM
IC50 [3]: 1.89 µM
IC50 [4]: 1.88 µM
IC50 [5]: 6.31 µM
IC50 [6]: 0.6 µM
IC50 ([7]; read-out: Assay F PI3Kδ IC50): 0.06 µM

SMILES: Cc1ccc(S(=O)(=O)NCCC(C)(C)O)cc1-c1cnc(N)c(-c2ccc(OC3CCOCC3)nc2)n1 [Example 119.24]
IC50 [8]: 1.09 µM
IC50 [1]: > 9.1 µM
IC50 [2]: > 9.1 µM
IC50 [3]: 3.4 µM
IC50 [9]: 0.761 µM
IC50 [4]: 9.02 µM
IC50 [10]: 2.6 µM
IC50 [5]: 9.22 µM
IC50 [6]: 3.17 µM
IC50 ([7]; read-out: Assay F PI3Kδ IC50): 1.67 µM

SMILES: Cc1ccc(S(=O)(=O)NCC2CN(C)CCO2)cc1-c1cnc(N)c(-c2cn(C)nc2C)n1 (centres unmarked) [Example 128.5, 3-(5-Amino-6-(1,3-dimethyl-1H-pyrazol-4-yl)pyrazin-2-yl)-4-methyl-N-((4-methylmorpholin-2-yl)methyl)benzenesulfonamide]
IC50 [8]: 2.3 µM
IC50 [1]: 9.6 µM
IC50 [2]: > 10 µM
IC50 [3]: > 10 µM
IC50 [9]: 0.37 µM
IC50 [10]: > 10 µM
IC50 [5]: > 10 µM
IC50 [6]: > 10 µM
IC50 ([7]; read-out: Assay F PI3Kδ IC50): 2.2 µM

SMILES: Cc1ccc(S(=O)(=O)NCCC(C)(C)O)cc1-c1cnc(N)c(-c2ccc(N3CCOCC3)nc2)n1 [Example 119.21]
IC50 [8]: 1.73 µM
IC50 [1]: > 9.1 µM
IC50 [2]: > 9.1 µM
IC50 [3]: 3.83 µM
IC50 [9]: 0.401 µM
IC50 [4]: > 9.1 µM
IC50 [10]: 5.16 µM
IC50 [5]: > 10 µM
IC50 [6]: 7.48 µM
IC50 ([7]; read-out: Assay F PI3Kδ IC50): 2.18 µM

SMILES: Cc1ccc(S(=O)(=O)NCCC(C)(C)O)cc1-c1cnc(N)c(-c2cnn(C)c2C)n1 [Example 119.19]
IC50 [8]: > 9.1 µM
IC50 [1]: > 9.1 µM
IC50 [2]: > 9.1 µM
IC50 [3]: > 9.1 µM
IC50 [9]: 3.47 µM
IC50 [4]: > 9.1 µM
IC50 [10]: > 10 µM
IC50 [5]: > 10 µM
IC50 [6]: > 10 µM
IC50 ([7]; read-out: Assay F PI3Kδ IC50): > 9.1 µM

SMILES: Cc1ccc(S(=O)(=O)NC2CC3(CC(O)C3)C2)cc1-c1cnc(N)c(-c2cn(C)nc2C)n1 (centres unmarked) [Example 74, 3-(5-Amino-6-(1,3-dimethyl-1H-pyrazol-4-yl)pyrazin-2-yl)-N-(6-hydroxyspiro[3.3]heptan-2-yl)-4-methylbenzenesulfonamide]
IC50 [1]: 0.83 µM
IC50 [2]: > 10 µM
IC50 [9]: 0.041 µM
IC50 [4]: 3.5 µM
IC50 [5]: > 10 µM
IC50 [6]: 6.86 µM
IC50 ([7]; read-out: Assay F PI3Kδ IC50): 0.38 µM
Assay M RLM CI(int) [11]: 30 µL/min/mg

SMILES: Cc1ccc(S(=O)(=O)NC[C@@H]2COCCN2C)cc1-c1cnc(N)c(-c2cn(C)nc2C)n1 (single isomer, unassigned) [Example 128.3a, (R)-3-(5-Amino-6-(1,3-dimethyl-1H-pyrazol-4-yl)pyrazin-2-yl)-4-methyl-N-((4-methylmorpholin-3-yl)methyl)benzenesulfonamide or (S)-3-(5-Amino-6-(1,3-dimethyl-1H-pyrazol-4-yl)pyrazin-2-yl)-4-methyl-N-((4-methylmorpholin-3-yl)methyl)benzenesulfonamide]
IC50 [2]: > 10 µM
IC50 [3]: > 10 µM
IC50 [10]: 5.15 µM
IC50 [6]: 2.1 µM

SMILES: Cc1ccc(S(=O)(=O)NCC2COCCN2C)cc1-c1cnc(N)c(-c2cn(C)nc2C)n1 (single isomer, unassigned) [Example 128.3b, (R)-3-(5-Amino-6-(1,3-dimethyl-1H-pyrazol-4-yl)pyrazin-2-yl)-4-methyl-N-((4-methylmorpholin-3-yl)methyl)benzenesulfonamide or (S)-3-(5-Amino-6-(1,3-dimethyl-1H-pyrazol-4-yl)pyrazin-2-yl)-4-methyl-N-((4-methylmorpholin-3-yl)methyl)benzenesulfonamide]
IC50 [8]: 0.37 µM
IC50 [2]: > 10 µM
IC50 [3]: 4.6 µM
IC50 [9]: 0.055 µM
IC50 [10]: 4.97 µM
IC50 [6]: 3.82 µM
IC50 [7]: 0.54 µM

More lines, in order of falling IC50 [5], values ahead:

IC50 [8]: 0.49 µM
IC50 [1]: 8.04 µM
IC50 [2]: > 9.1 µM
IC50 [3]: 8.19 µM
IC50 [9]: 0.248 µM
IC50 [4]: > 9.1 µM
IC50 [10]: 1.32 µM
IC50 [5]: 4.48 µM
IC50 [6]: 1.3 µM
IC50 ([7]; read-out: Assay F PI3Kδ IC50): 0.58 µM
SMILES: Cc1ccc(S(=O)(=O)NCCC(C)(C)O)cc1-c1cnc(N)c(-c2ccc(F)nc2)n1 [Example 119.18]

IC50 [8]: 1.16 µM
IC50 [1]: > 9.1 µM
IC50 [2]: > 9.1 µM
IC50 [3]: 7.35 µM
IC50 [9]: 0.667 µM
IC50 [4]: 8.53 µM
IC50 [10]: 3.14 µM
IC50 [5]: 4.39 µM
IC50 [6]: 4.96 µM
IC50 ([7]; read-out: Assay F PI3Kδ IC50): 1.44 µM
SMILES: COc1ccc(-c2nc(-c3cc(S(=O)(=O)NCCC(C)(C)O)ccc3C)cnc2N)c(C)n1 [Example 119.14]

IC50 [8]: 2.98 µM
IC50 [1]: > 9.1 µM
IC50 [2]: > 9.1 µM
IC50 [3]: 7.96 µM
IC50 [9]: 0.278 µM
IC50 [4]: 4.32 µM
IC50 [10]: 6.97 µM
IC50 [5]: 4.05 µM
IC50 [6]: 5.93 µM
IC50 ([7]; read-out: Assay F PI3Kδ IC50): 0.72 µM
SMILES: Cc1cncc(-c2nc(-c3cc(S(=O)(=O)NCCC(C)(C)O)ccc3C)cnc2N)c1 [Example 119.7]

IC50 [8]: 0.45 µM
IC50 [1]: > 9.1 µM
IC50 [2]: > 9.1 µM
IC50 [3]: > 9.1 µM
IC50 [9]: 0.303 µM
IC50 [4]: > 9.1 µM
IC50 [10]: 2.54 µM
IC50 [5]: 3.56 µM
IC50 [6]: 6.94 µM
IC50 ([7]; read-out: Assay F PI3Kδ IC50): 1.1 µM
SMILES: Cc1ccc(S(=O)(=O)NCCC(C)(C)O)cc1-c1cnc(N)c(-c2ccncc2F)n1 [Example 119.11]

IC50 [1]: 0.27 µM
IC50 [2]: 0.32 µM
IC50 [3]: 1.57 µM
IC50 [4]: 1.84 µM
IC50 [5]: 3.4 µM
IC50 [6]: 1.22 µM
IC50 ([7]; read-out: Assay F PI3Kδ IC50): 0.03 µM
SMILES: Cc1ncc(-c2nc(-c3cc(S(=O)(=O)N[C@H]4CC[C@@H](O)CC4)ccc3C)cnc2N)s1 [Example 87, 3-(5-Amino-6-(2-methylthiazol-5-yl)pyrazin-2-yl)-N-((1s,4s)-4-hydroxycyclohexyl)-4-methylbenzenesulfonamide]

IC50 [8]: 0.33 µM
IC50 [1]: 7.78 µM
IC50 [2]: > 9.1 µM
IC50 [3]: 0.69 µM
IC50 [9]: 0.178 µM
IC50 [4]: > 9.1 µM
IC50 [10]: 1.92 µM
IC50 [5]: 3.07 µM
IC50 [6]: 4.23 µM
IC50 ([7]; read-out: Assay F PI3Kδ IC50): 0.9 µM
SMILES: Cc1ccc(S(=O)(=O)NCCC(C)(C)O)cc1-c1cnc(N)c(-c2cnc(Cl)cc2C)n1 [Example 119.9]

IC50 [8]: 0.6 µM
IC50 [1]: > 9.1 µM
IC50 [2]: > 9.1 µM
IC50 [3]: > 9.1 µM
IC50 [9]: 0.118 µM
IC50 [4]: 4.31 µM
IC50 [10]: 1.64 µM
IC50 [5]: 3.06 µM
IC50 [6]: 1.76 µM
IC50 ([7]; read-out: Assay F PI3Kδ IC50): 0.71 µM
SMILES: Cc1ccc(S(=O)(=O)NCCC(C)(C)O)cc1-c1cnc(N)c(-c2cc(C(F)(F)F)nn2C)n1 [Example 119, 3-(5-Amino-6-(1-methyl-3-(trifluoromethyl)-1H-pyrazol-5-yl)pyrazin-2-yl)-N-(3-hydroxy-3-methylbutyl)-4-methylbenzenesulfonamide]

IC50 [1]: 0.12 µM
IC50 [2]: 0.64 µM
IC50 [3]: 3.74 µM
IC50 [4]: 0.62 µM
IC50 [5]: 2.67 µM
IC50 [6]: 1.24 µM
IC50 ([7]; read-out: Assay F PI3Kδ IC50): 0.03 µM
SMILES: Cc1ncc(-c2nc(-c3cc(S(=O)(=O)NC4CCC(F)(F)CC4)ccc3C)cnc2N)s1 [Example 55, 3-(5-Amino-6-(2-methylthiazol-5-yl)pyrazin-2-yl)-N-(4,4-difluorocyclohexyl)-4-methylbenzenesulfonamide]

IC50 [1]: 0.62 µM
IC50 [2]: 0.42 µM
IC50 [3]: 1.57 µM
IC50 [4]: 0.88 µM
IC50 [5]: 1.79 µM
IC50 [6]: 0.31 µM
IC50 ([7]; read-out: Assay F PI3Kδ IC50): 0.04 µM
SMILES: Cc1ncc(-c2nc(-c3cc(S(=O)(=O)N[C@H]4CC[C@H](O)CC4)ccc3C)cnc2N)s1 [Example 14, Trans-3-(5-Amino-6-(2-methylthiazol-5-yl)pyrazin-2-yl)-N-(4-hydroxycyclohexyl)-4-methylbenzenesulfonamide]
